Values quoted from earlier work as cited in patent publication US20070116643A1, “Novel aryloxypropanamines” (Concert Pharmaceuticals Inc., priority 2005, published 2007).
Structures can show the parent of a compound that is named as a salt.

Columns and labels:
5-HT reuptake [1] = conditions: in humans
NE reuptake = conditions: in humans
5-HT reuptake [2] = conditions: rodent models
[3] = system: central monoamine receptors

Structure (SMILES): CNCC[C@H](Oc1cccc2ccccc12)c1cccs1 [Compound A, (S)-N-methyl-3-(naphthalen-1-yloxy)-3-(thiophen-2-yl)propan-1-amine hydrochloride]
- inhibition of 5-HT reuptake (5-HT reuptake [1]): recapitulates the preclinically observed inhibition of 5-HT and NE reuptake
- inhibition of NE reuptake (NE reuptake): recapitulates the preclinically observed inhibition of 5-HT and NE reuptake
- inhibition of neural cell firing / 5-HT reuptake (5-HT reuptake [2]): inhibiting neural cell firing by reducing reuptake of 5-HT
- affinity for central monoamine receptors [3]: lacks affinity for central monoamine receptors
- circulating radioactivity attributable to parent drug, AUC basis (humans, radiolabeled Compound A): approximately 3%
- extent of metabolism (oral administration to humans, predominantly oxidative mechanisms): rapidly and extensively metabolized
